Molecules are shown by their SMILES.

The values below come from patent US9371305B2, “Deuterated benzopyran compounds and application thereof” (Guangzhou Institutes of Biomedicine And Health, Chinese …, priority 2012, dated 2016).

The subject of data set [1] is generation of PGE2 in the whole blood. In words: whole blood assay, lipopolysaccharide-induced yield of PGE2 in heparin blood (ELISA). To be noted: Homo sapiens, read-out: inhibition IC50 onto generation of PGE2 in the whole blood test. In kind it is cell-based, human. On the procedure:
(§1) Deuterated benzopyran compounds of different concentrations were uniformly mixed with ovine COX-1 and human recombinant COX-2 for incubation for 15 min, respectively, and then the system was added with Heme and ADHP for incubation for another 2 min and finally added with substrate arachidonic acid. The light emission intensity of the reaction product at 595 nm was immediately detected by a microplate reader under exciting light at 530 nm. […] In the whole blood assay, venous blood of healthy donors was collected with a non-anticoagulation tube and a heparin tube, deuterated benzopyran compounds of different concentrations (1×10^−8 to 1×10^−4) were mixed with the blood in the non-anticoagulation tube, the supernatant was collected after the blood was coagulated and then measured by ELISA in terms of the yield of TXB2; and deuterated benzopyran compounds of different concentrations (1×10^−8 to 1×10^−4) were mixed with the blood in the heparin tube, the mixture was added with lipopolysaccharide until the final concentration was 100 μg/mL, mixed uniformly and then kept stand overnight at 37° C., the supernatant was collected by centrifugation and then measured by ELISA in terms of the yield of PGE2.
In general terms: ELISA stands for enzyme-linked immunosorbent assay.

Data set [2] deals with generation of TXB2 in the whole blood. In words: whole blood assay, yield of TXB2 in coagulated blood (ELISA). Format: cell-based. To be noted: Homo sapiens, read-out: inhibition IC50 onto generation of TXB2 in the whole blood test. Here is the method: as §1, with “PGE2. […]” for “PGE2.”
In data set [3] the target is T1, ovine COX-1 (Ovis aries, UniProt P05979).
T1 sequence (P05979 25-600): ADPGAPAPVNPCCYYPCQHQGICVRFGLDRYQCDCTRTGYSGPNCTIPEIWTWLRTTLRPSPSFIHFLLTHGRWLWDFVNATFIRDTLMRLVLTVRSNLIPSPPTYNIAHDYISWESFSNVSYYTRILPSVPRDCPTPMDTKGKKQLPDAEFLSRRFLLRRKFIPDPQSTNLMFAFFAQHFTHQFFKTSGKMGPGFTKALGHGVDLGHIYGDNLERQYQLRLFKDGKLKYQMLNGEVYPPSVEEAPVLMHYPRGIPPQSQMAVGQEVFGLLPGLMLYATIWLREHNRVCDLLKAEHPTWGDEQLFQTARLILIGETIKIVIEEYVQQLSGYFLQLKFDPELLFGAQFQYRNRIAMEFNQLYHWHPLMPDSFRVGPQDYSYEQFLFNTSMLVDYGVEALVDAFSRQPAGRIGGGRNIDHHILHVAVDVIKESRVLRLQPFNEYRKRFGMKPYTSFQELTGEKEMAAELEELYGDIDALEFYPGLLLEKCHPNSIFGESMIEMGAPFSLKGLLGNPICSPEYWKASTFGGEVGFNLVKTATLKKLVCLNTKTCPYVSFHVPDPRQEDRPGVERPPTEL
In words: COX-1 enzyme inhibition (ADHP fluorescence). Format: biochemical. To be noted: ovine COX-1, 15 min incubation; read-out: Inhibition IC50 COX-1. On the procedure:
as §1, with “PGE2. […]” for “PGE2.”

Data set [4] deals with T2, human recombinant COX-2 (Homo sapiens, UniProt P35354).
T2 sequence (P35354 18-604): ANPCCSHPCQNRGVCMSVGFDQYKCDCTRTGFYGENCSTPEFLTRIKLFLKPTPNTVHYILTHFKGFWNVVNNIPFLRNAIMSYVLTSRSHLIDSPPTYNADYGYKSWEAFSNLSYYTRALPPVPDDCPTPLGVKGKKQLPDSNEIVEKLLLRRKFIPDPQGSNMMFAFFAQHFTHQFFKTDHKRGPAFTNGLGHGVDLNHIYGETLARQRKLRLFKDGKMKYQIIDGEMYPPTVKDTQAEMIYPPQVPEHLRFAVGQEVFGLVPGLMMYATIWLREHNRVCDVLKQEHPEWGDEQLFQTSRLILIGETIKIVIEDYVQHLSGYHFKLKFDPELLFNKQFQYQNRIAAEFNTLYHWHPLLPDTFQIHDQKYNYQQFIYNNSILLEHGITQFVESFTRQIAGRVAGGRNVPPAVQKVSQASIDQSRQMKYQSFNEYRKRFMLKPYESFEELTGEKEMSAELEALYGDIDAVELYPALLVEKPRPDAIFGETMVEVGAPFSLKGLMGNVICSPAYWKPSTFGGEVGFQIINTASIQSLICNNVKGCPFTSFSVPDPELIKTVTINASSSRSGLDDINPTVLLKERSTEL
Nature of the data set: COX-2 enzyme inhibition (ADHP fluorescence). Format: biochemical. To be noted: human recombinant COX-2, 15 min incubation. Here is the method: as §1

Data set [5] in a line: Test on pharmacokinetics and bioavailability of rats. In kind it is in vivo, SD rats. To be noted: male SD rats, single dose 2.5 mg/kg. On the procedure:
The blood samples employ acetonitrile to precipitate protein, 16000 rpm*30 min, and the supernatant is used for LC/MS analysis. Data is performed with parameter fitting by DAS2.0, and the bioavailability of oral administration of compounds is calculated according AUC data.

In general, Vd refers to a proportionality between amount in the body and measured concentration, not a real space. Higher therefore signals wide distribution into tissue. The term AUC denotes the area under the concentration-time curve, a measure of exposure. By Cmax is commonly meant the highest concentration seen after dosing. One may read the Tmax as the time at which the peak concentration occurs. As for `[2H]C([2H])([2H])c1c(Br)c2c(c(C([2H])([2H])[2H])c1Br)C=C(C(=O)O)C(C(F)(F)F)O2` (stereo not shown) [GIBH-1051, 6,8-dibromo-5,7-(dimethyl-D6)-2-(trifluoromethyl)-2H-chromene-3-carboxylic acid], the IC50 in data set [1] is greater than 100 µM; in data set [2], 70.6 µM; in data set [3] it was 5.45 µM; in data set [4], 0.0841 µM. In addition, the distribution volume (Vd) in data set [5] was determined as 1.004 L/kg. The BA in data set [5] (oral, calculated according AUC data) is given as 63.7%. The compound further displayed an AUC in data set [5] (rat, plasma, oral administration) of 13000 ng·h/mL. In addition, the highest concentration (Cmax) in data set [5] (rat, plasma, oral administration, read-out: Cmax) was 4480 ng/mL. The Tmax in data set [5] (rat, plasma, oral administration, read-out: Tmax) was determined as 0.688 h. For the same compound, the half-life in data set [5] (rat, plasma, oral administration, read-out: t½ (converted)) is 1.76 h.
